Assay results: ChEMBL document CHEMBL4507295 (2021)

What was measured:
[1] = molecular target: Tyrosine-protein kinase receptor TYRO3 (Homo sapiens) (UniProt Q06418); conditions: Compound concentration 1000.0 nM
[2] = molecular target: 5-hydroxytryptamine receptor 4 (Homo sapiens) (UniProt Q13639); assay: Inhibition of Serotonin (5-Hydroxytryptamine) 5-HT4 at 10 µM in the Eurofins-Panlabs radioligand binding assay (Eurofins_assay_272000); conditions: Cavia porcellus; Compound concentration 10.0 uM
[3] = molecular target: Histamine H3 receptor (Homo sapiens) (UniProt Q9Y5N1); assay: Histamine H3 Eurofins-Panlabs radioligand binding assay; conditions: Compound concentration 10.0 uM
[4] = molecular target: Mitogen-activated protein kinase kinase kinase 12 (Homo sapiens) (UniProt Q12852); conditions: Compound concentration 1000.0 nM
Sequence of Mitogen-activated protein kinase kinase kinase 12 (Homo sapiens) (Q12852 whole entry): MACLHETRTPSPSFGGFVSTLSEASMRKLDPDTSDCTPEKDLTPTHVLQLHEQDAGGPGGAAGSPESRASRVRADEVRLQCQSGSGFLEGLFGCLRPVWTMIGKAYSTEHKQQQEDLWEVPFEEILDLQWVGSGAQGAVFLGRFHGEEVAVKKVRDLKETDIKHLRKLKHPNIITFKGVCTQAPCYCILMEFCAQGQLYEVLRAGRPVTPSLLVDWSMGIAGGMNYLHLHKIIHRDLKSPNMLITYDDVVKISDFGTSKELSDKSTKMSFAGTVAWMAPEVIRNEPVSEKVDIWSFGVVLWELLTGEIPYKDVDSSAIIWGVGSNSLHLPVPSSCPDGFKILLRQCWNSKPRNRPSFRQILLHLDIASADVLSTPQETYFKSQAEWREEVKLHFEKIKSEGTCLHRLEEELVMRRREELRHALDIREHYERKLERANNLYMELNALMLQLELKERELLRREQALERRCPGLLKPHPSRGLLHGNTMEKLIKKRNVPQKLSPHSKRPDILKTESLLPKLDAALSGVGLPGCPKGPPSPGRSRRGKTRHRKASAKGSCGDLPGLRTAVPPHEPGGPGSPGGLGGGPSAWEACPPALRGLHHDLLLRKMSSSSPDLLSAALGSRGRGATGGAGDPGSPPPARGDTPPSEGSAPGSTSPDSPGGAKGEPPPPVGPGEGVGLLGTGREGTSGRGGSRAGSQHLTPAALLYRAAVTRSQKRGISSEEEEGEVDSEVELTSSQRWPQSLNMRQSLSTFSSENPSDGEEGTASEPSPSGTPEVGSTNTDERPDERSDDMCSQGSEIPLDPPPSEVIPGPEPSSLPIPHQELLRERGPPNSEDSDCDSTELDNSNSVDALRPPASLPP

[5] = molecular target: cGMP-specific 3',5'-cyclic phosphodiesterase (Homo sapiens) (UniProt O76074); conditions: Compound concentration 100.0 uM
[6] = molecular target: Glutamate receptor 2 (Homo sapiens) (UniProt P42262); conditions: Rattus norvegicus; Compound concentration 10.0 uM
[7] = molecular target: Somatostatin receptor type 1 (Homo sapiens) (UniProt P30872); assay: Somatostatin sst1 Eurofins-Panlabs radioligand binding assay; parameters: ligand concentration 0.1 nM; conditions: Compound concentration 10.0 uM
[8] = molecular target: Cathepsin G (Homo sapiens) (UniProt P08311); assay: Inhibition of Peptidase, CTSG (Cathepsin G) at 10 µM in the Eurofins-Panlabs enzyme assay (Eurofins_assay_112510); parameters: substrate with concentration; conditions: Compound concentration 10.0 uM
[9] = molecular target: Glutamate NMDA receptor (Rattus norvegicus) (UniProt P35439+Q00959+Q00960+Q00961+Q62645+Q8VHN2+Q9R1M7); conditions: Compound concentration 10.0 uM
[10] = molecular target: D(1A) dopamine receptor (Homo sapiens) (UniProt P21728); conditions: Compound concentration 10.0 uM
[11] = molecular target: Glutamate (NMDA/AMPA/Kainate) (Rattus norvegicus) (UniProt P35439+Q00959+Q00960+Q00961+Q62645+Q8VHN2+Q9R1M7+P22756+Q9ULK0+Q01812+P19491+P19492+P19493+P42260+P42264+P19490+Q63273+O43424); assay: Glutamate, Non-Selective Eurofins-Panlabs radioligand binding assay; type: protein-complex assay; parameters: ligand concentration 3.75 nM; conditions: Compound concentration 10.0 uM
[12] = molecular target: Phosphodiesterase 3 (Homo sapiens) (UniProt Q14432+Q13370); assay: Inhibition of Phosphodiesterase PDE3 at compound concentration of 10.0 uM in the Eurofins-Panlabs enzyme assay (Eurofins_assay_152000); type: protein assay; parameters: substrate with concentration 1.01 uM [3H] cAMP + cAMP, incubation time 20 min, incubation temperature 25 C; conditions: Compound concentration […]
[13] = molecular target: 5'-AMP-activated protein kinase catalytic subunit alpha-2 (Homo sapiens) (UniProt P54646); conditions: Compound concentration 1000.0 nM
Sequence of 5'-AMP-activated protein kinase catalytic subunit alpha-2 (Homo sapiens) (P54646 whole entry, looked up): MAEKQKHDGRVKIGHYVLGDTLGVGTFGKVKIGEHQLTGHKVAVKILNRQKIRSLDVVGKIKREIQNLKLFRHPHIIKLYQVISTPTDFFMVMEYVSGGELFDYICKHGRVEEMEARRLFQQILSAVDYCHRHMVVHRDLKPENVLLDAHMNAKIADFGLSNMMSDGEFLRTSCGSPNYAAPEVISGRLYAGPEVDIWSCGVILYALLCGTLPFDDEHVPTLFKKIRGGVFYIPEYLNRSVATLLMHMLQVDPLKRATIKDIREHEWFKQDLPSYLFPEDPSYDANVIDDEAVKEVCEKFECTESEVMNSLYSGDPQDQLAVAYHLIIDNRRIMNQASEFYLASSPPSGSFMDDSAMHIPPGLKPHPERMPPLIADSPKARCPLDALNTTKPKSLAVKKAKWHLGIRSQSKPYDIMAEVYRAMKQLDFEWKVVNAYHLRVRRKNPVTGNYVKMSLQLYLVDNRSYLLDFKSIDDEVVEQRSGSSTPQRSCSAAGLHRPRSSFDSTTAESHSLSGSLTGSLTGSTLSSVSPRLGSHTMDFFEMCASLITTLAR

[14] = molecular target: Myosin light chain kinase 2, skeletal/cardiac muscle (Homo sapiens) (UniProt Q9H1R3); conditions: Compound concentration 1000.0 nM
Sequence of Myosin light chain kinase 2, skeletal/cardiac muscle (Homo sapiens) (Q9H1R3 whole entry): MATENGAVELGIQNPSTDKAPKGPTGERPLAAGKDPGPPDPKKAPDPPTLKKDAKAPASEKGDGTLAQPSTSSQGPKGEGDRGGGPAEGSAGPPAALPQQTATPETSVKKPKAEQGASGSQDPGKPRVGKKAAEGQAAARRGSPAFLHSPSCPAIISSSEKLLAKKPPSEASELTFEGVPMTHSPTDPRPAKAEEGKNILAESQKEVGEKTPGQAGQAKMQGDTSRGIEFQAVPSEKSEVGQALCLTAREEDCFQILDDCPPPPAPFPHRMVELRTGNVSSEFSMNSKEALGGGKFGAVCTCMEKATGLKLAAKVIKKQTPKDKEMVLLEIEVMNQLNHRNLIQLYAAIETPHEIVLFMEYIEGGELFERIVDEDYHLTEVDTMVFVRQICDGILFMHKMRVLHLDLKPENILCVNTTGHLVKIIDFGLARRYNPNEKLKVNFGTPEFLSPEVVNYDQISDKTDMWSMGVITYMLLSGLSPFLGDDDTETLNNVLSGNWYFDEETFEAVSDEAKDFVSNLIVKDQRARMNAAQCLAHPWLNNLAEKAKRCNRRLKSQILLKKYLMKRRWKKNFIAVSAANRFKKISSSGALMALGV

[15] = molecular target: D(3) dopamine receptor (Homo sapiens) (UniProt P35462); conditions: Compound concentration 10.0 uM
[16] = molecular target: T1, 5-hydroxytryptamine receptor 1A (Homo sapiens) (UniProt P08908); conditions: Compound concentration 10.0 uM
T1 sequence (whole entry): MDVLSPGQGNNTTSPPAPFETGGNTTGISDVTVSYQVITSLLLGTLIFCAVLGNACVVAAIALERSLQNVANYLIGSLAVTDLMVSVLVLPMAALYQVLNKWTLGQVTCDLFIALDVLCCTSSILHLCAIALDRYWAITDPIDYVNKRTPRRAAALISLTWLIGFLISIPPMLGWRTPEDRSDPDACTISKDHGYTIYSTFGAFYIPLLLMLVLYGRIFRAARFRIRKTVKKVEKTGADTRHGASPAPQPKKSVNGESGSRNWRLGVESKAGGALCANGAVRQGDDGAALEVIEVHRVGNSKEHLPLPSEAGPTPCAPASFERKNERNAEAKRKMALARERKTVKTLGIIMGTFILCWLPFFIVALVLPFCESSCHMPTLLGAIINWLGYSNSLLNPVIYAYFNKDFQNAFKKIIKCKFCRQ

[17] = molecular target: Beta-2 adrenergic receptor (Homo sapiens) (UniProt P07550); conditions: Compound concentration 10.0 uM
[18] = molecular target: Mitogen-activated protein kinase kinase kinase 19 (Homo sapiens) (UniProt Q56UN5); conditions: Compound concentration 1000.0 nM
[19] = molecular target: Prostacyclin receptor (Homo sapiens) (UniProt P43119); assay: Prostanoid IP Eurofins-Panlabs radioligand binding assay; parameters: ligand concentration 5 nM; conditions: Compound concentration 10.0 uM
[20] = molecular target: Mitogen-activated protein kinase kinase kinase 20 (Homo sapiens) (UniProt Q9NYL2); conditions: Compound concentration 1000.0 nM
Sequence of Mitogen-activated protein kinase kinase kinase 20 (Homo sapiens) (Q9NYL2 2-800 limits assumed): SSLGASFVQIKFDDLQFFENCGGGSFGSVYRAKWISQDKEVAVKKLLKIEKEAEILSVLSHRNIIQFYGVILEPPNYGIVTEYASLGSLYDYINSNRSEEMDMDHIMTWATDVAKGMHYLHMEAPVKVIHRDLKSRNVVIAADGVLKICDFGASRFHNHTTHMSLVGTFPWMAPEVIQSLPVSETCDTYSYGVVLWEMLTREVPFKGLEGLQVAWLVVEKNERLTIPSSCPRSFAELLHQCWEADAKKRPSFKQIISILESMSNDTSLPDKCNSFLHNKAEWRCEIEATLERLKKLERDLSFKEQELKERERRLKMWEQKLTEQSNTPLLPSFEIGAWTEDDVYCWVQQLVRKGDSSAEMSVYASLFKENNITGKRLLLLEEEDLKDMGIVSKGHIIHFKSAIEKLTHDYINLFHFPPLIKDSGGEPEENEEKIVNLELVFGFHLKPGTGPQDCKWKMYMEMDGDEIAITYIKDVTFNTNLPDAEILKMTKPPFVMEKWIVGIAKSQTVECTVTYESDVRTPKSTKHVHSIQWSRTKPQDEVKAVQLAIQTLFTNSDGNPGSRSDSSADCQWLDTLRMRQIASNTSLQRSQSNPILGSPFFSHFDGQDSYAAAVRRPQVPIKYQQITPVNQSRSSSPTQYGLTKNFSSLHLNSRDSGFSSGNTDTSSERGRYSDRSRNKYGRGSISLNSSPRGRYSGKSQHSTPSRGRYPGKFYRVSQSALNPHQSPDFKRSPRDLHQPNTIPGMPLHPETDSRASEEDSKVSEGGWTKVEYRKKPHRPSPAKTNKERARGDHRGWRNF

[21] = molecular target: Melanocortin receptor 4 (Homo sapiens) (UniProt P32245); assay: Inhibition of Melanocortin MC4 at 10 µM in the Eurofins-Panlabs radioligand binding assay (Eurofins_assay_251350); parameters: ligand concentration 0.02 nM; conditions: Compound concentration 10.0 uM
[22] = molecular target: Serine/threonine-protein kinase TNNI3K (Homo sapiens) (UniProt Q59H18); conditions: Compound concentration 1000.0 nM
Sequence of Serine/threonine-protein kinase TNNI3K (Homo sapiens) (Q59H18 whole entry): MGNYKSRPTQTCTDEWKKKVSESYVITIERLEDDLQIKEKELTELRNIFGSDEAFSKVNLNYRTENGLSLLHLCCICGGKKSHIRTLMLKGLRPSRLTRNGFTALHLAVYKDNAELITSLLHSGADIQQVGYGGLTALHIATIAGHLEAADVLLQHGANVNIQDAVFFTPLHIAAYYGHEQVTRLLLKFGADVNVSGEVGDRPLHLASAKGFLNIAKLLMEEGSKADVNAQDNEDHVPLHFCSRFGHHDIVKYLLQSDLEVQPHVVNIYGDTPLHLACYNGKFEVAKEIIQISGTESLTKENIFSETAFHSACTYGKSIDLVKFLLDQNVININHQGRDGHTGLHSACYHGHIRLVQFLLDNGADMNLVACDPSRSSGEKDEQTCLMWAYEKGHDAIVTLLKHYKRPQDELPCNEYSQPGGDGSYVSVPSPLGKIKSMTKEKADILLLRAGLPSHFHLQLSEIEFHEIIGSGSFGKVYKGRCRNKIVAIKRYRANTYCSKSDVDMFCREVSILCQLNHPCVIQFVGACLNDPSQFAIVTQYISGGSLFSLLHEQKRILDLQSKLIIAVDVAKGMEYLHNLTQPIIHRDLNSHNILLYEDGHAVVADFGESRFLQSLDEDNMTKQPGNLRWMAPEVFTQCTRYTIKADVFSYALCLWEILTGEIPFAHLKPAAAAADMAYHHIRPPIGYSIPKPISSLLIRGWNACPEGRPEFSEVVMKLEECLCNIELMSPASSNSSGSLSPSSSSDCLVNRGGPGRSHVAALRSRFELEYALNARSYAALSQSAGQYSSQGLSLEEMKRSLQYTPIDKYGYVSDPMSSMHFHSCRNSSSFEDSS

[23] = molecular target: Adenosine Transporter (Cavia porcellus) (UniProt H0V4R7+H0UUG1+H0V3Z5); assay: Inhibition of Transporter, Adenosine at compound concentration of 10.0 uM in the Eurofins-Panlabs radioligand binding assay (Eurofins_assay_202000); type: protein assay; parameters: ligand concentration 0.5 nM, non-specific ligand with concentration 5 uM Nitrobenzylthioinosine, incubation time 30 min, incubation temperature 25 C; conditions: Compound concentration 10.0 uM
[24] = molecular target: Neuropeptide Y receptor type 1 (Homo sapiens) (UniProt P25929); assay: Inhibition of Neuropeptide Y Y1 at 10 µM in the Eurofins-Panlabs radioligand binding assay (Eurofins_assay_257010); conditions: Compound concentration 10.0 uM
Sequence of Neuropeptide Y receptor type 1 (Homo sapiens) (P25929 whole entry): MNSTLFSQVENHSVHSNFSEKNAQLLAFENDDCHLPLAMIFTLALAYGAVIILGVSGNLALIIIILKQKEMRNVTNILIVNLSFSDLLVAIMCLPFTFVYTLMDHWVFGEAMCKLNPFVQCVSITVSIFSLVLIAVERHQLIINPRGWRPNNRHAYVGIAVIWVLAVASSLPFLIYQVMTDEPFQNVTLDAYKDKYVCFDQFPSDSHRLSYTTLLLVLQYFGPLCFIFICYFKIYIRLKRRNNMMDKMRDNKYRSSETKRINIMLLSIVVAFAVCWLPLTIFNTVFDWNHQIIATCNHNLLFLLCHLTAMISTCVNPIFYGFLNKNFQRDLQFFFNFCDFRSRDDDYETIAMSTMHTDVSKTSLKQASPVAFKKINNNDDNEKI

[25] = molecular target: Receptor-type tyrosine-protein phosphatase C (Homo sapiens) (UniProt P08575); assay: Inhibition of Protein Tyrosine Phosphatase, PTPRC (CD45) at 10 µM in the Eurofins-Panlabs enzyme assay (Eurofins_assay_190010); conditions: Compound concentration 10.0 uM
[26] = molecular target: Glutamate receptor ionotropic, kainate (Rattus norvegicus) (UniProt P22756+Q01812+P42260+P42264+Q63273); assay: Inhibition of Glutamate, Kainate at 10 µM in the Eurofins-Panlabs radioligand binding assay (Eurofins_assay_232700); conditions: Compound concentration 10.0 uM
[27] = molecular target: Prostaglandin E2 receptor EP4 subtype (Homo sapiens) (UniProt P35408); assay: Prostanoid EP4 Eurofins-Panlabs radioligand binding assay; parameters: ligand concentration 0.5 nM; conditions: Compound concentration 10.0 uM

Sequence of Tyrosine-protein kinase receptor TYRO3 (Homo sapiens) (Q06418 whole entry): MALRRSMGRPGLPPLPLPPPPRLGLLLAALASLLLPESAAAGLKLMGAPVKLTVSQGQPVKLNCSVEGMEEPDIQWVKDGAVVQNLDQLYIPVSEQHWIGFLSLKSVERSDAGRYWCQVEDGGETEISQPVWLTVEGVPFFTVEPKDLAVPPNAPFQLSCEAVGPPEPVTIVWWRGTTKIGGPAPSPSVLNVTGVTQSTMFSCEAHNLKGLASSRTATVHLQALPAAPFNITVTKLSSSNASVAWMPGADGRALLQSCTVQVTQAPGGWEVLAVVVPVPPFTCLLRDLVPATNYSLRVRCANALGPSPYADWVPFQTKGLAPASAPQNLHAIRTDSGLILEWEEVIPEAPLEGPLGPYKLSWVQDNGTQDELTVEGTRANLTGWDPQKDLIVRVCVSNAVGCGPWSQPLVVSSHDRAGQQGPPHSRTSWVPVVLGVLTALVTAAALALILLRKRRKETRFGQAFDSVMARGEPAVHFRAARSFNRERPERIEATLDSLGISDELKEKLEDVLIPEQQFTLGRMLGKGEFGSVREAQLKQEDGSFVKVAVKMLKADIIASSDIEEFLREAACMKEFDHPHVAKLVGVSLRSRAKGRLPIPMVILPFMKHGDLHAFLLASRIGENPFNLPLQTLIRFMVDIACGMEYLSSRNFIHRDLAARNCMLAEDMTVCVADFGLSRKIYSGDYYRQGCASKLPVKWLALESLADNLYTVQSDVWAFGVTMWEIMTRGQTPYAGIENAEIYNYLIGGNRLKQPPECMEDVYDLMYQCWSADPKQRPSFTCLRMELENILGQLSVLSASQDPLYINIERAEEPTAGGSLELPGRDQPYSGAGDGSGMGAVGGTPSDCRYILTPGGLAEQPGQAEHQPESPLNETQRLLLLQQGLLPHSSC

N#CC1(c2ccccn2)CCN(Cc2cc(C(=O)O)c(=O)n3ccccc23)CC1 [MSD-M1PAM]
inactive: residual activity [1] 98% | inhibition [2] 6% | inhibition [3] -9% | residual activity [4] 93% | inhibition [5] 21% | inhibition [6] -7% | inhibition [7] -3% | inhibition [8] 10% | inhibition [9] 4% | inhibition [10] 6% | inhibition [11] 8% | inhibition [12] 1% | residual activity [13] 100% | residual activity [14] 94% | inhibition [15] -7.39% | inhibition [16] 2% | inhibition [17] -4% | residual activity [18] 77% | inhibition [19] 22% | residual activity [20] 100% | inhibition [21] -1% | residual activity [22] 100% | inhibition [23] 2% | inhibition [24] -1% | inhibition [25] 13% | inhibition [26] 7% | inhibition [27] -4%

N#CC1(c2ccccn2)CCN(Cc2cc(C(=O)N3CCCC3)c(=O)n3ccccc23)CC1
inactive: residual activity [1] 78% | residual activity [4] 100% | residual activity [13] 100% | residual activity [14] 87% | residual activity [18] 100% | residual activity [20] 95% | residual activity [22] 89%
